According to the supplement of paper PMC10307832:

Legend:
Assay in all cases: relative viability (nuclei count vs DMSO), 5 days (fraction); higher = more cells survive
[1] = compound: CS(=O)(=O)c1ccc(-c2cnc(N)c(C(=O)Nc3ccccc3)n2)cc1 [VE-821] + N=C(N)NC(=N)NCCc1ccccc1 [Phenformin] (partner 250 µM)
Summary of the method: (§1)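 Values are medians from duplicate plates. Each reflects relative viability, defined as the nuclei count of treated wells over that of vehicle wells. Lung cancer cell lines in 1536-well plates were pin-tool dosed one day after seeding with one drug alone or with a fixed anchor-drug dose plus five library-drug doses (not always all listed) in √10 steps, then fixed, stained and imaged at 4× after 5 days.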

[2] = compound: CS(=O)(=O)c1ccc(-c2cnc(N)c(C(=O)Nc3ccccc3)n2)cc1 [VE-821] + O=C(CCCCCCC(=O)Nc1ccccc1)NO [Vorinostat] (partner 1 µM)
Summary of the method: as §1

[3] = compound: CS(=O)(=O)c1ccc(C(=O)Nc2ccc(Cl)c(-c3ccccn3)c2)c(Cl)c1 [Vismodegib] + N=C(N)NC(=N)NCCc1ccccc1 [Phenformin] (partner 250 µM)
Summary of the method: as §1

[4] = compound: N#CC[C@H](C1CCCC1)n1cc(-c2ncnc3[nH]ccc23)cn1 [Ruxolitinib] + C[C@]1(O)C[C@@H](c2nc(-c3ccc4ccc(-c5ccccc5)nc4c3)c3c(N)nccn32)C1 [Linsitinib] (partner 1 µM)
Summary of the method: as §1

## UMC-11
[1]; first compound 0.08 µM
  relative viability: 0.335
[1]; first compound 0.253 µM
  relative viability: 0.301
[1]; first compound 0.8 µM
  relative viability: 0.331
[1]; first compound 2.53 µM
  relative viability: 0.341
[1]; first compound 8 µM
  relative viability: 0.265
[2]; first compound 0.08 µM
  relative viability: 0.335
[2]; first compound 0.253 µM
  relative viability: 0.373
[2]; first compound 0.8 µM
  relative viability: 0.386
[2]; first compound 2.53 µM
  relative viability: 0.297
[2]; first compound 8 µM
  relative viability: 0.202
[3]; first compound 0.08 µM
  relative viability: 0.286
[3]; first compound 0.253 µM
  relative viability: 0.311
[3]; first compound 0.8 µM
  relative viability: 0.301
[3]; first compound 2.53 µM
  relative viability: 0.283
[3]; first compound 8 µM
  relative viability: 0.284
[4]; first compound 0.08 µM
  relative viability: 1.03
[4]; first compound 0.253 µM
  relative viability: 1.08
[4]; first compound 0.8 µM
  relative viability: 1.08
[4]; first compound 2.53 µM
  relative viability: 1.11
[4]; first compound 8 µM
  relative viability: 0.96
